IC50 data for 13 molecules are collected here from patent US20200079773A1, “CARBOXYLIC ACID DERIVATIVES OF PYRIDOQUINAZOLINES USEFUL AS PROTEIN KINASE INHIBITORS” (ONCOSTELLAE, S.L., priority 2017, published 2020).

pIC50: −log10 of the molar value.

Holding throughout (assay type): biochemical
One test addresses T1, JAK2 (Homo sapiens, UniProt O60674).
T1 construct: purchased Carna Biosciences 08-045
Description: Functional assay of protein kinases (Caliper mobility shift), JAK2. The conditions noted are these: ATP 300 μM, 30 min incubation. How it is done: (§1) Functional Assays of Protein Kinases
(§2) The functional assays of protein kinases were carried out in 384-well plates using a final volume of 30 μl. […] The reaction was reads in a “Caliper EzReader LabChip 3000” (Caliper, Hopkinton, Mass.) reader, based on electrophoretic mobility of the fluorescent substrate and the phosphorylated product.
(§3) The inhibition percentages were calculated by comparison between control reactions, for 100% of inhibition and reactions with only DMSO for 0% of inhibition.

The target of a further test is T2, TYK2 (Homo sapiens, UniProt P29597).
T2 construct: purchased Carna Biosciences 08-147
T2 sequence (P29597 871-1187 limits assumed): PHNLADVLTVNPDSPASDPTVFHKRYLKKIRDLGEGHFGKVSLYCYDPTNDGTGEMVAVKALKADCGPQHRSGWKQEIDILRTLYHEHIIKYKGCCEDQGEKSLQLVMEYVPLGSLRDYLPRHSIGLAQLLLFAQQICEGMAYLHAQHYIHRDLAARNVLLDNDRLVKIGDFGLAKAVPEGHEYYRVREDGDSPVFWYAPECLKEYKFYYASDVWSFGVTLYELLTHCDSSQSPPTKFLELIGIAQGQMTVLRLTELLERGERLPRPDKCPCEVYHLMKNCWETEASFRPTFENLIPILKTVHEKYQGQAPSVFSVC
Nature of the test: Functional assay of protein kinases (Caliper mobility shift), TYK2. The settings on record: ATP 20 μM, 45 min incubation. How it is done: as §1, §2, §3

The target of another test is T3, Human MLK3 (Homo sapiens, UniProt Q16584).
T3 construct: purchased Reaction Biology MLK3
Nature of the test: MLK3 activity inhibition test (Reaction Biology kit, 33P ATP filter assay). The settings on record: MBP 10 μM, ATP 10 μM. How it is done: MLK3 Activity Inhibition Test
Activity test was carried out using the kit from Reaction Biology (CAT #: MLK3). The test uses enzyme Human MLK3 and substrates are MBP (Myelin Basic Protein, HGNC ID:6925) 10 μM and ATP 10 μM. Other reagents are the following: Base Reaction buffer; 20 mM Hepes (pH 7.5), 10 mM MgCl2, 1 mM EGTA, 0.02% Brij35, 0.02 mg/ml BSA, 0.1 mM Na3VO4, 2 mM DTT, 1% DMSO.
The reaction was carried out following the instructions of manufacturer. Briefly, kinase/substrate pairs were prepared in reaction buffer. Compounds were delivered into the reaction, followed 20 minutes later by addition of a mixture of ATP (Sigma, St. Louis Mo.) and ^33P ATP (Perkin Elmer, Waltham Mass.) to a final concentration of 10 μM. Reactions were carried out at room temperature for 120 min, followed by spotting of the reactions onto P81 ion exchange filter paper (Whatman Inc., Piscataway, N.J.). Unbound phosphate was removed by extensive washing of filters in 0.75% phosphoric acid. […] IC50 values and curve fits were obtained using Prism (GraphPad Software).

A further test concerns the target T4, JAK3 (Homo sapiens, UniProt P52333).
T4 construct: purchased Carna Biosciences 08-046
Nature of the test: Functional assay of protein kinases (Caliper mobility shift), JAK3. The settings on record: ATP 8 μM, 30 min incubation. As to the method: as §1, §2, §3

A further test has as its target T5, JAK1 (Homo sapiens, UniProt P23458).
T5 construct: purchased Carna Biosciences 08-144
Description: Functional assay of protein kinases (Caliper mobility shift), JAK1. The conditions noted are these: ATP 100 μM, 150 min incubation. As to the method:
as §1, §2, §3

T4 sequence (P52333 795-1124 limits assumed): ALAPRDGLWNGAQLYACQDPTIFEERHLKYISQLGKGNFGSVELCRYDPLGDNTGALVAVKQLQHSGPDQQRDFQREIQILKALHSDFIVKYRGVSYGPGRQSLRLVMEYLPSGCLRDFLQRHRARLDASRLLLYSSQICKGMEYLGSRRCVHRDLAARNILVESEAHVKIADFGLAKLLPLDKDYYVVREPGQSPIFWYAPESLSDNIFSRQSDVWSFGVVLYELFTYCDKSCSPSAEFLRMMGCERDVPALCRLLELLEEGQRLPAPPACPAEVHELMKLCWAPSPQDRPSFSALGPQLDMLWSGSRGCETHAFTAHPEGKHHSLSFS
T3 sequence (Q16584 whole entry): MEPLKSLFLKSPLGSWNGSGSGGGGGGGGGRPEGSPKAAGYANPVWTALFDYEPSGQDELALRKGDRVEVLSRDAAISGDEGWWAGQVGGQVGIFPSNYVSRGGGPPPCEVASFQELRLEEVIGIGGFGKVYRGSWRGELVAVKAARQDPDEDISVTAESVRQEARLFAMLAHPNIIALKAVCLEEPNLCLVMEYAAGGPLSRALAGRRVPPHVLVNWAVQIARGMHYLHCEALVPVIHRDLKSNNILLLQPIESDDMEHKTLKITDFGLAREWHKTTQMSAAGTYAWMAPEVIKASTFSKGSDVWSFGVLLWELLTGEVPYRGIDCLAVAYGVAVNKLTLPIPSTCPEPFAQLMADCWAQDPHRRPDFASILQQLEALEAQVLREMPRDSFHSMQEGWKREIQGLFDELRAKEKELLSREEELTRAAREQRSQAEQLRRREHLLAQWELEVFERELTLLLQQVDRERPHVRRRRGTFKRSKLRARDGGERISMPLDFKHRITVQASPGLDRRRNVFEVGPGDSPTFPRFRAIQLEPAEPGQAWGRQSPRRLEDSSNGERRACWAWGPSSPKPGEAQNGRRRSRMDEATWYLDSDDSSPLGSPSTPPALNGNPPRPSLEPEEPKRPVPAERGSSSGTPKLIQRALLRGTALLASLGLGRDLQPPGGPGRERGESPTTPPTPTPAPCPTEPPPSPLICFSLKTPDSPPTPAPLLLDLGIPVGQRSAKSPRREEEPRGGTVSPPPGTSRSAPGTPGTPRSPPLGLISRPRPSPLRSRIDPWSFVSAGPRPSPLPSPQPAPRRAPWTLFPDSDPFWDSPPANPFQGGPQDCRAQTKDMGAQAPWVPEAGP
T1 sequence (O60674 826-1132 limits assumed): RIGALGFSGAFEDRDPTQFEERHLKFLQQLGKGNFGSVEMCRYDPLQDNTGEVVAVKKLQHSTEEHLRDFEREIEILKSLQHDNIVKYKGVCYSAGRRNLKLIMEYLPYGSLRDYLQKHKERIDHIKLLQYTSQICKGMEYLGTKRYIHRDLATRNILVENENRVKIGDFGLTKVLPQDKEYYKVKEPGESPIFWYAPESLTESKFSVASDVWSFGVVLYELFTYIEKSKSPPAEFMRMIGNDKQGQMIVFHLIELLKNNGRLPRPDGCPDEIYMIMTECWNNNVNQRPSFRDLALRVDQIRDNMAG
T5 sequence (P23458 850-1154 limits assumed): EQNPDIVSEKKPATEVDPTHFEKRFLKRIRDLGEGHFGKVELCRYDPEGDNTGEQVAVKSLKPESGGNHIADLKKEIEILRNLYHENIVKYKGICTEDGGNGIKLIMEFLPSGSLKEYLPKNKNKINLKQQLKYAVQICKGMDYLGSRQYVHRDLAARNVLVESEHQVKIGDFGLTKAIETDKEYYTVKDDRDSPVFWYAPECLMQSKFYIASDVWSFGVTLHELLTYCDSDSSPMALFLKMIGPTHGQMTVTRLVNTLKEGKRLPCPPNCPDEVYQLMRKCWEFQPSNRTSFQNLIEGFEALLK

For the molecule `O=C(N[C@H]1CC[C@@H](C(=O)O)CC1)c1cccn2c(=O)c3cc(C4CC4)ccc3nc12` [Example 3, (1S,4S)-4-(2-cyclopropyl-11-oxo-11H-pyrido[2,1-b]quinazoline-6-carboxamido)cyclohexane-1-carboxylic acid], the pIC50 on JAK2 was at most 6.00; on TYK2, above 7.00; at Human MLK3, above 7.00; at JAK3, above 7.00; on JAK1, at most 6.00.

In the case of `O=C(NC12CCC(C(=O)O)(CC1)CC2)c1cccn2c(=O)c3cc(C4CC4)ccc3nc12` [Example 6, 4-(2-cyclopropyl-11-oxo-11H-pyrido[2,1-b]quinazoline-6-carboxamido)bicyclo[2.2.2]octane-1-carboxyli acid], the pIC50 was at most 6.00 on JAK2; 6.00 to 7.00 at TYK2; above 7.00 against Human MLK3; 6.00 to 7.00 at JAK3; at most 6.00 at JAK1.

With `Cc1cc(C(=O)NC2CCC(C(=O)O)CC2)c2nc3ccccc3c(=O)n2c1` (centres unmarked) [Example 10, 4-(8-methyl-11-oxo-11H-pyrido[2,1-b]quinazoline-6-carboxamido)cyclohexane-1-carboxylic acid], the negative logarithm of the IC50 (pIC50) is at most 6.00 on JAK2; above 7.00 on TYK2; at most 6.00 on Human MLK3; 6.00 to 7.00 on JAK3; at most 6.00 at JAK1.

`O=C(NC1CCC(C(=O)O)CC1)c1cccn2c(=O)c3ccccc3nc12` (centres unmarked) [Example 12, 4-(11-oxo-11H-pyrido[2,1-b]quinazoline-6-carboxamido)cyclohexane-1-carboxylic acid]: the negative logarithm of the IC50 (pIC50) at JAK2 is at most 6.00; on TYK2, 6.00 to 7.00; at JAK3, 6.00 to 7.00; on JAK1 it was at most 6.00.

Consider `O=C(N[C@H]1CC[C@@H](C(=O)O)CC1)c1cccn2c(=O)c3ccccc3nc12` [Example 13, (1S,4S)-4-(11-oxo-11H-pyrido[2,1-b]quinazoline-6-carboxamido)cyclohexane-1-carboxylic add], for which the negative logarithm of the IC50 (pIC50) on JAK2 is at most 6.00; at TYK2, 6.00 to 7.00; on Human MLK3, 6.00 to 7.00; at JAK3, 6.00 to 7.00; on JAK1, at most 6.00.

For `O=C(N[C@H]1CC[C@@H](C(=O)O)CC1)c1cccn2c(=O)c3cc(N4CCOCC4)ccc3nc12` [Example 14, (1S,4S)-4-(2-morpholino-11-oxo-11H-pyrido[2,1-b]quinazoline-6-carboxamido)cyclohexane-1-carboxylic acid], the negative-log IC50 (pIC50) on JAK2 was at most 6.00; on TYK2, above 7.00; against Human MLK3, above 7.00; at JAK3, above 7.00; at JAK1 it was at most 6.00.

Take `O=C(N[C@H]1CC[C@@H](C(=O)O)CC1)c1cccn2c(=O)c3cc(-c4ccccc4)ccc3nc12` [Example 15, (1S,4S)-4-(11-oxo-2-phenyl-11H-pyrido[2,1-b]quinazoline-6-carboxamido)cyclohexane-1-carboxylic acid]: the pIC50 on JAK2 was at most 6.00; on TYK2, above 7.00; on JAK3, above 7.00; on JAK1, at most 6.00.

Turning to `O=C(N[C@H]1CC[C@@H](C(=O)O)CC1)c1cccn2c(=O)c3cc(-c4ccc(F)cc4)ccc3nc12` [Example 16, (1S,4S)-4-(2-(4-fluorophenyl)-11-oxo-11H-pyrido[2,1-b]quinazoline-6-carboxamido)cyclohexane-1-carboxylic acid], the pIC50 at JAK2 was at most 6.00; at TYK2 it was above 7.00; against Human MLK3, above 7.00; on JAK3, above 7.00; at JAK1 it was at most 6.00.

Turning to `O=C(N[C@H]1CC[C@@H](C(=O)O)CC1)c1cccn2c(=O)c3cc(-c4ccncc4)ccc3nc12` [Example 17, (1S,4S)-4-(11-oxo-2-(pyridin-4-yl)-11H-pyrido[2,1-b]quinazoline-6-carboxamido)cyclohexane-1-carboxylic acid], the pIC50 was at most 6.00 on JAK2; above 7.00 at TYK2; above 7.00 at Human MLK3; above 7.00 at JAK3; at most 6.00 on JAK1.

Take `COc1ccc2nc3c(C(=O)NC4CCC(C(=O)O)CC4)cccn3c(=O)c2c1` (centres unmarked) [Example 20, 4-(2-methoxy-11-oxo-11H-pyrido[2,1-b]quinazoline-6-carboxamido)cyclohexane-1-carboxylic acid]: the negative logarithm of the IC50 (pIC50) was 6.00 to 7.00 at TYK2, above 7.00 against Human MLK3 and above 7.00 at JAK3.

In the case of `N#Cc1ccc2nc3c(C(=O)NC4CCC(C(=O)O)CC4)cccn3c(=O)c2c1` (centres unmarked) [Example 21, 4-(2-cyano-11-oxo-11H-pyrido[2,1-b]quinazoline-6-carboxamido)cyclohexane-1-carboxylic add], the pIC50 on JAK2 was at most 6.00; at TYK2 it was at most 6.00; against Human MLK3, at most 6.00; on JAK3 it was 6.00 to 7.00; on JAK1 it was at most 6.00.

In the case of `O=C(NC1CCC(C(=O)O)CC1)c1cccn2c(=O)c3cc(Cl)ccc3nc12` (centres unmarked) [Example 23, 4-(2-chloro-11-oxo-11H-pyrido[2,1-b]quinazoline-6-carboxamido)cyclohexane-1-carboxylic add], the pIC50 at JAK2 was at most 6.00; at TYK2, 6.00 to 7.00; on JAK3 it was 6.00 to 7.00; at JAK1 it was at most 6.00.

`O=C(NC1CCC(C(=O)O)CC1)c1cccn2c(=O)c3cc(Br)ccc3nc12` (centres unmarked) [Example 24, 4-(2-bromo-11-oxo-11H-pyrido[2,1-b]quinazoline-6-carboxamido)cyclohexane-1-carboxylic acid]: the negative-log IC50 (pIC50) was at most 6.00 at JAK2, 6.00 to 7.00 on TYK2, 6.00 to 7.00 at JAK3 and at most 6.00 at JAK1.

The pIC50 is the IC50 on a negative log10 scale, so that one unit is a factor of ten.
